The source of these data is ChEMBL document CHEMBL1201862, “PubChem BioAssay data set” (2004).

Active and inactive are the calls of the source. A value given as a limit tells only on which side of the number the result lay.

Assay [1] can be described thus: microbe, parasite or virus in culture. The class given is functional. The conditions noted are these: Mycobacterium tuberculosis.
Assay [2] in a line: THP-1 cell cytotoxicity, dose response, cytotoxicity control for non-replicating M. tuberculosis project (AID 489025). Format: functional.
Assay [3] can be described thus: HepG2 cell cytotoxicity, dose response, cytotoxicity control for non-replicating M. tuberculosis project (AID 489018). The conditions noted are these: Mycobacterium tuberculosis. Format: functional.
Assay [4] has as its target T1, Ubiquitin-conjugating enzyme E2 N (Homo sapiens, UniProt P61088).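 Also: Dose-response confirmation in a TR-FRET assay detecting UBC13-driven polyubiquitin chain formation, inhibition measured.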
T1 sequence (P61088 whole entry): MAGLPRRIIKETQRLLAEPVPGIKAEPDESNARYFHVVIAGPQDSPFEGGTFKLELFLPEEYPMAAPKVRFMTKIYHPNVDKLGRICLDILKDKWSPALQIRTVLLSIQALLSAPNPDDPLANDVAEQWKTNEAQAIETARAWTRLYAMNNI
Format: functional.

Assay [5] is described as follows: Vero E6 cell cytotoxicity, dose response, cytotoxicity control for non-replicating M. tuberculosis project, secondary assay (AID 492998). Format: functional, VeroE6. Particulars: Vero C1008.
A short description of another assay: cells. The class given is functional.
Assay [6] deals with T2, Insulin-degrading enzyme (Homo sapiens, UniProt P14735).
T2 sequence (P14735 whole entry): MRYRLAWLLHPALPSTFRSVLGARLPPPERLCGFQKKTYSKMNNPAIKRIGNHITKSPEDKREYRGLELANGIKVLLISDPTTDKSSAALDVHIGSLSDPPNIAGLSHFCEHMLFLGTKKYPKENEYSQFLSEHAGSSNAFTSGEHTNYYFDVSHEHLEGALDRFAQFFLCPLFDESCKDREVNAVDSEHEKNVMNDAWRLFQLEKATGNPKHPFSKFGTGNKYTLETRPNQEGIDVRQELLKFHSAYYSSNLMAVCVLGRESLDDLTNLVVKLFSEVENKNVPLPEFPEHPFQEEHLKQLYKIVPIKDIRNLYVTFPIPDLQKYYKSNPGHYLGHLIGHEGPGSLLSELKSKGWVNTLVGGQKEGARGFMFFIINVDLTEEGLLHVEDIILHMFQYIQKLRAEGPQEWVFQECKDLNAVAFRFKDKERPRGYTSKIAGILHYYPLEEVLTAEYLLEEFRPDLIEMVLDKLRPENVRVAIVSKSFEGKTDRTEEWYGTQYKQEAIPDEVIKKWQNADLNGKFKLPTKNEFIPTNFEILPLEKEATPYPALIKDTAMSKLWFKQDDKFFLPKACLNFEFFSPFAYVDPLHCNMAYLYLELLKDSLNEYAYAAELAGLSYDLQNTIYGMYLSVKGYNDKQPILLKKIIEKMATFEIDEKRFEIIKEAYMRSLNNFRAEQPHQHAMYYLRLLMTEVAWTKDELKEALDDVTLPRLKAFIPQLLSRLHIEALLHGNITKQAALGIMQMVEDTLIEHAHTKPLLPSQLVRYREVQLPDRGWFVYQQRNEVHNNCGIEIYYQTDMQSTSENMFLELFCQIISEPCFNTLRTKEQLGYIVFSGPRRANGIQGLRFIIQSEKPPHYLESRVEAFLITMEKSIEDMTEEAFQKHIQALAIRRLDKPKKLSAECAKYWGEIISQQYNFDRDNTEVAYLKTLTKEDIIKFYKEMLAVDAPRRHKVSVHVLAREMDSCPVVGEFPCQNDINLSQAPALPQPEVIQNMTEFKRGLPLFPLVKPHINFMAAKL
Put plainly: recombinant IDE activation, cell-free – biochemical, fluorescence polarization, counter-screen for IDE activator project, dose response (AID 588681).

In assay [7] the target is T2, Insulin-degrading enzyme. Description: cellular IDE activation of Abeta substrate cleavage – fluorescence polarization, HEK cells, dose response (AID 588439). The class given is functional, cell-based.
For assay [8], the system named is HEK293. Put plainly: membrane integrity loss in HEK cells – cell-based, fluorescence, cytotoxicity control for IDE activator project, dose response (AID 588440).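 Also: cytotoxicity by LDH release measuring loss of membrane integrity.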 Format: functional. The conditions noted are these: Homo sapiens.
The test system of assay [9] is HEK293. Put plainly: optical interference in Abeta FP readout, dose response, artefact control for IDE activator project, biochemical, fluorescence polarization (AID 588442). The conditions noted are these: Homo sapiens. The class given is functional, cell-based.
Assay [10] in a line: reduction of Shn3 3'UTR-driven luciferase in osteoblasts – cell-based, Clone20 osteoblasts, firefly luciferase, cherry-picked, dose response (AID 624132).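 Also: firefly luciferase luminescence from reporter carrying the Shn3 3'UTR in osteoblasts.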 The class given is functional.
Assay [11] in a line: loss of viability in HepG2 cells – cell-based, CellTiter-Glo, cherry-picked, cytotoxicity control for Shn3 inhibitor project, dose response (AID 624134). Format: functional.
Assay [12] is described as follows: non-specific 3'UTR reporter inhibition in Clone20-Shn3RL – cell-based, Renilla luciferase, cherry-picked, counter-screen for Shn3 inhibitor project, dose response (AID 624133). Format: functional.
Assay [13] addresses Runt-related transcription factor 1/Core-binding factor subunit beta (Homo sapiens, UniProt Q01196+Q13951). Put plainly: Confirmation of compounds inhibiting the binding between the RUNX1 Runt domain and CBFb-SMMHC via a fluorescence resonance energy transfer (FRET) assay. [Related pubchem assays (depositor defined):AID1434, AID1438, AID1496, AID1550, AID1645]. The class given is protein assay.

The target in assay [14] is T3, Heat shock factor protein 1 (Mus musculus, UniProt P38532).
T3 sequence (P38532 whole entry): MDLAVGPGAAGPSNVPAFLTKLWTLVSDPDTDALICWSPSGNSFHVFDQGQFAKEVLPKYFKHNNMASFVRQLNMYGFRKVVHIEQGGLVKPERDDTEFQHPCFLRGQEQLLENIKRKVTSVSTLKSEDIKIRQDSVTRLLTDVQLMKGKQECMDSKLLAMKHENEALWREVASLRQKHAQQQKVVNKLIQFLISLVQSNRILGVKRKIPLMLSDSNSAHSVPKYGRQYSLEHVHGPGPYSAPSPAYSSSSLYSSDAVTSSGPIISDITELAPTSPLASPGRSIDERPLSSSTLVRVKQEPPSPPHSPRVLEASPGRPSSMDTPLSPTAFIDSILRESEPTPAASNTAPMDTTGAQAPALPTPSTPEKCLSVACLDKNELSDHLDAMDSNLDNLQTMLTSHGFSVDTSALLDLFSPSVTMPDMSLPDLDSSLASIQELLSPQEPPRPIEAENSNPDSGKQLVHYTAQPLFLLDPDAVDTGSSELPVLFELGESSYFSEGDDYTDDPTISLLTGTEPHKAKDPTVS
Put plainly: decrease of HSF1-responsive luciferase luminescence – cell-based, NIH3T3, dose retest, confirmation (AID 2382).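 Also: NIH3T3 fibroblasts with HSF1-driven luciferase reporter stressed by proteasome inhibitor MG132; luminescence from HSF1-driven luciferase expression after 8 hours of MG132 stress.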 Format: functional.

Assay [15] has as its target T4, Corticotropin-releasing factor receptor 2/Corticotropin-releasing factor-binding protein (Homo sapiens, UniProt P24387+Q13324).
T4 sequence (Q13324 whole entry): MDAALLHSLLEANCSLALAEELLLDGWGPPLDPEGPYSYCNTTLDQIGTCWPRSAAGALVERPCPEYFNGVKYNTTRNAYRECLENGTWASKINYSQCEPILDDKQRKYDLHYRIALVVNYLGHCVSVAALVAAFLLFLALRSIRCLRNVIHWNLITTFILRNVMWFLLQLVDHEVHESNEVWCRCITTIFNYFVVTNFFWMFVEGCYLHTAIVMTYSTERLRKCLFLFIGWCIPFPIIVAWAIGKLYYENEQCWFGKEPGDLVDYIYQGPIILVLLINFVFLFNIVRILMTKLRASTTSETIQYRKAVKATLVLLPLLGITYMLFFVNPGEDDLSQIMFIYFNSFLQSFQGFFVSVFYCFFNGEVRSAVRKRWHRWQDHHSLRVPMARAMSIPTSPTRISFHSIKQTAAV
T4 sequence (P24387 whole entry): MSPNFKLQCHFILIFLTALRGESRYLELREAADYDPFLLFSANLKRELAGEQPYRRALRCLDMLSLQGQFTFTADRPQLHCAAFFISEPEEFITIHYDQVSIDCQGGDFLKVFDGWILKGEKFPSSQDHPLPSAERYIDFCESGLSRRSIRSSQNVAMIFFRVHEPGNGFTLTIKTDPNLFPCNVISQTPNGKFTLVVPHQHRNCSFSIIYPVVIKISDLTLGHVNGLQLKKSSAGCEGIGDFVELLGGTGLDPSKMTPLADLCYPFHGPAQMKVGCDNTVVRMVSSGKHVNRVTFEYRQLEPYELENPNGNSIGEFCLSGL
Put plainly: activators of CRF receptor 2 with binding protein – uHTS hits, confirmation (AID 602473). The class given is functional. Particulars: read-out: EC50_Mean.

Assay [16] deals with T5, E3 ubiquitin-protein ligase XIAP (Homo sapiens, UniProt P98170). Put plainly: Counter Screen using XIAP-Bir3 for Chemical Antagonists of Bir1/2 domains of IAP-family anti-apoptotic proteins. [Related pubchem assays (depositor defined):AID1018, AID1449, AID1514, AID1638, AID1749, AID1750, AID488957, AID488963].
In assay [17] the target is T5, E3 ubiquitin-protein ligase XIAP. Description: small molecules displacing peptide from XIAP – biochemical, IAP family, fluorescence polarization (AID 1018). Format: functional.
For another assay, the target named is Mu-type opioid receptor (Homo sapiens, UniProt P35372). Put plainly: SAR Analysis of Antagonists of the MOR Receptor using an Image-Based Assay - Set 3. [Related pubchem assays (depositor defined):AID1777, AID1785, AID1786, AID1966, AID2133, AID2136, AID2284, AID2285, AID2420]. Format: functional.
Assay [18] has as its target Delta-type opioid receptor (Homo sapiens, UniProt P41143). Description: SAR Analysis of Antagonists of the DOR Receptor using an Image-Based Assay - Set 3. [Related pubchem assays (depositor defined):AID1777, AID1785]. The class given is functional.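 Also: U2OS cells expressing DOR1 and beta-arrestin GFP stimulated with 100 nM SNC80; imaging of GFP-tagged beta-arrestin moving into spots after receptor activation.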
In assay [19] the target is T6, Kappa-type opioid receptor (Homo sapiens, UniProt P41145). Description: SAR analysis of small molecule antagonists of the kappa opioid receptor via a luminescent beta-arrestin assay - Set 3. [Related pubchem assays (depositor defined):AID1777, AID1778, AID1785, AID1786, AID1966, AID2133, AID2136, AID2285, AID2495]. Format: functional.
Assay [20] deals with T6, Kappa-type opioid receptor. Description: SAR analysis of Antagonists of the Kappa Opioid Receptor (KOR) using an Image-Based Assay - Set 3. [Related pubchem assays (depositor defined):AID1777, AID1785]. Format: functional.

T5 sequence (P98170 whole entry): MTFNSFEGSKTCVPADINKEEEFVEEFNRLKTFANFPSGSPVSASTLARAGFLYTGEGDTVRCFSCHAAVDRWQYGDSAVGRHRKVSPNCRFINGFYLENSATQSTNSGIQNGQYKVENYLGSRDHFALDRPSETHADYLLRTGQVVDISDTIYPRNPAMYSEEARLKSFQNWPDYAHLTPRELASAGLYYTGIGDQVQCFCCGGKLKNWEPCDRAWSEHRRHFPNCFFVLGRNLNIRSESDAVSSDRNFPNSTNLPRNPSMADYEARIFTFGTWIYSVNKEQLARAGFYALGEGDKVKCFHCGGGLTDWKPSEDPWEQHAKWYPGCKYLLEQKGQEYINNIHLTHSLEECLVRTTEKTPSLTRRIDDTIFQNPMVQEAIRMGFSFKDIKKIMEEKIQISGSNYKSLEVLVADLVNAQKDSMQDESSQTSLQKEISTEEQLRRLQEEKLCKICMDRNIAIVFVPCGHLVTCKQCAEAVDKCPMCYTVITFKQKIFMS
T6 sequence (P41145 whole entry): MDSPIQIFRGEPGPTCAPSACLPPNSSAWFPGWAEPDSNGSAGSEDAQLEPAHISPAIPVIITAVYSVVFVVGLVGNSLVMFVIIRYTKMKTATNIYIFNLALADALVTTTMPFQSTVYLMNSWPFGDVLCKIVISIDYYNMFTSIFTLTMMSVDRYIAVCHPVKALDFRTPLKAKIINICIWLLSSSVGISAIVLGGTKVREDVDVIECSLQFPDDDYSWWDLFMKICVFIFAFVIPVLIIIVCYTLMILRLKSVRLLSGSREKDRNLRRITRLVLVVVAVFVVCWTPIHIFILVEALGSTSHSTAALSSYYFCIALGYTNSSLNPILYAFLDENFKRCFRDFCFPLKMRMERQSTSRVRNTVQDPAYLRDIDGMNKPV
Chain of Delta-type opioid receptor (P41143 whole entry): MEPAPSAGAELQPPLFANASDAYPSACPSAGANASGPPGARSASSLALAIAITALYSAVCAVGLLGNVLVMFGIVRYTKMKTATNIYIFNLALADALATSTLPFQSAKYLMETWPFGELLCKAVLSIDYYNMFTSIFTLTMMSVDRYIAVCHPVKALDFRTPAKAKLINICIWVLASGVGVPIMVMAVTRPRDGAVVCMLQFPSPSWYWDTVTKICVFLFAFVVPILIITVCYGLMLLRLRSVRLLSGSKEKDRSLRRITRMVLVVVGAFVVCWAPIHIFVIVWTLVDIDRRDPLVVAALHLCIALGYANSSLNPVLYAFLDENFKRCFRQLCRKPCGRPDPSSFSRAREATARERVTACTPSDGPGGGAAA
Chain of Runt-related transcription factor 1/Core-binding factor subunit beta (Q01196 whole entry, the tested form may be a part): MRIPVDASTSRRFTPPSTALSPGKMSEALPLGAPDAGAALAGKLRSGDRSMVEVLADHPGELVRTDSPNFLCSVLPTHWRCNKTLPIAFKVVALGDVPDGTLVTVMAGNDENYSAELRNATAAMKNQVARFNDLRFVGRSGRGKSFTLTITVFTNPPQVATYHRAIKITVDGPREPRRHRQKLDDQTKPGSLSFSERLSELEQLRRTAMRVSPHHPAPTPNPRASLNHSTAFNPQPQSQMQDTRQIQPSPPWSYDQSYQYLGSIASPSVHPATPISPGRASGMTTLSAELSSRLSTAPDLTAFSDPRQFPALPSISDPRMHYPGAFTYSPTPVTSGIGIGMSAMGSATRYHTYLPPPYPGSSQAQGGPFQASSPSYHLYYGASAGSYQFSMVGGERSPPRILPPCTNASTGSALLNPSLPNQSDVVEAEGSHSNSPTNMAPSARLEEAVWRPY
Chain of Runt-related transcription factor 1/Core-binding factor subunit beta (Q13951 whole entry, the tested form may be a part): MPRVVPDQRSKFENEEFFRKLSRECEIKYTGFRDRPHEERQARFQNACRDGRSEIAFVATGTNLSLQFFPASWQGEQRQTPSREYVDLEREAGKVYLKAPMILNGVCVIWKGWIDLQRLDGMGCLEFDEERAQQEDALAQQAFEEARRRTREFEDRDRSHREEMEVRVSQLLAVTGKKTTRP
Chain of Mu-type opioid receptor (P35372 whole entry): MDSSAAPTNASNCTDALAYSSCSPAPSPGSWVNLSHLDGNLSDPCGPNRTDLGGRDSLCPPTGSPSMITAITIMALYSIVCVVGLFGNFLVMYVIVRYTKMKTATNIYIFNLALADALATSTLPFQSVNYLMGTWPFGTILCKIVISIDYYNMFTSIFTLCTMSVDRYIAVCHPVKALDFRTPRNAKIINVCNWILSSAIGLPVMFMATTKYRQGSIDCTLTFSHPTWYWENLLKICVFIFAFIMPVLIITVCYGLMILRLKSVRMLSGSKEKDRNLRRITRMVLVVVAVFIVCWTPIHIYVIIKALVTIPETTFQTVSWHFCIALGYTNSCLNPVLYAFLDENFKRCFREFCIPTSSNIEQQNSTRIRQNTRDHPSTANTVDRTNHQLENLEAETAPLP

For the compound `CCCCCCCNC(=O)C1(CC2CC(c3cccc(Br)c3)=NO2)CCNCC1` (configuration not stated), the CC50 is 6.71 µM (active) in [1], 6.82 µM (active) in assay [2], 5.99 µM (active) in assay [3] and 15.2 µM (active) in assay [5]. In addition, the IC50 in assay [4] was > 20 µM (inactive); in the assay “cells”, 17.2 µM (active); in the assay on HEK293 [8], 7.51 µM (active). Moreover, the EC50 is > 54.7 µM (inactive) on Insulin-degrading enzyme [6], 54.5 µM (inactive) on Insulin-degrading enzyme [7] and > 55.9 µM (inactive) with HEK293 [9]. Moreover, the AC50 was 11.7 µM (active) in assay [10], 14.1 µM (active) in [11] and 16.5 µM (active) in assay [12].
Consider `CCS(=O)(=O)Nc1ccc(-c2nc3cccnc3s2)cc1`, for which, in assay [13], the IC50 was 12.8 µM (active). In addition, the results for the EC50 in [14] and in assay [15] were 92.9 µM (active) and > 53 µM (inactive), respectively.
For `O=C1C2C3c4ccccc4C(c4ccccc43)C2C(=O)N1c1ccncc1` (configuration not stated), the IC50 in assay [16] is > 100 µM (inactive); in assay [17] it was > 100 µM (not active).
As to `COc1ccc(S(=O)(=O)NCc2ccc(C(=O)NCCN(Cc3ccccc3)C(C)C)cc2)cc1`, the IC50 on Mu-type opioid receptor is 9.6 µM (active); in [18], > 32 µM (inactive); in assay [19] it was 2.63 µM (active); in [20] it was 0.806 µM (active).
